Experiments:
hOT receptor = target: T1, hOT receptor (Homo sapiens, UniProt P30559); experiment: Functional assay No. 1: inhibition of oxytocin mediated Ca2+-mobilization by FLIPR in HEK293EBNA cells; format: cell-based; conditions: HEK293EBNA cells expressing hOT receptor, OT 40 nM, fluo-4, FLIPR; read-out: Inhibition of Ca2+ mobiliation, hOT-R IC50
T1 construct: expressed in transfected cells; host or cells: HEK293EBNA
T1 sequence (P30559 1-389): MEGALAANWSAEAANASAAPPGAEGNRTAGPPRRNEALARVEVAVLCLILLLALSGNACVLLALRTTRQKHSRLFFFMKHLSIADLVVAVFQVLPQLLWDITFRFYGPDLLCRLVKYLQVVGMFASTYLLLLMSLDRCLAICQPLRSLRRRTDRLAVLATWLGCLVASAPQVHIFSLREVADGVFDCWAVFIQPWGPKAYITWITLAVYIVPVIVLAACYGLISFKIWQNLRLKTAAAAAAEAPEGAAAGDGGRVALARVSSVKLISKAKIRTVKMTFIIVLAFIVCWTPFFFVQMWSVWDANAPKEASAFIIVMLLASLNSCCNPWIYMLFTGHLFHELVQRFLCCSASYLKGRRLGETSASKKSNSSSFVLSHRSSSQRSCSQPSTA
Source text: b) Functional Assay No. 1: Inhibition of Oxytocin Mediated Ca^2+-mobilization by FLIPR® (Fluorimetric Imaging Plate Reader)
The action of OT on the OT-receptor triggers a complex cascade of events in the cell which leads to an increase in the intra-cytoplasmic Ca^2+ concentration. This increase in Ca^2+ concentration results from both calcium release from the sarcoplasmic reticulum (calcium stores) into the cytoplasm and from calcium influx from the extracellular space through Ca^2+ channels. […]
FLIPR® is a fluorimetric imaging device using a laser (Argon-ion laser) for simultaneous illumination and reading (cooled CCD camera) of each well of a 96-well-plate, thus enabling rapid measurements on a large number of samples. […]
The relative fluorescence of Fluo-4 (λex=488 nm, […]) is then measured by the FLIPR in presence or absence of compounds of formula (I). The fluorescence of the marker being sensitive to the amount of Ca^2+, the Ca^2+ movements can be detected. Then, the ability of compounds of formula (I) to antagonize the oxytocin-induced intracellular Ca^2+-mobilization mediated by the oxytocin receptor may be determined.
The activities of the pyrrolidine derivatives according to formula (I) were assessed using the above described in vitro biological assay. […]

[1] = tested on: oxytocin-induced uterine contractions in the rat; experiment: In vivo model for inhibition of uterine contractions (oxytocin-induced, anaesthetised DES-treated rats); conditions: intravenous, PEG400/saline 50:50, 5 ml/kg infusion
Experimental: d) In Vivo Model for Inhibtion of Uterine Contractions
The assay evaluates the biological effect of tested compounds in an in vivo model of preterm labor, premature birth.
Non-pregnant Charles River CD (SD) BR female rats (9–10 weeks old, 200–250 g) were treated at 18 and 24 hours before the experiment with 250 μg/kg, i.p. diethylstilbestrol (DES). For the assay, the animal was anaesthetised with urethane (1.75 g/kg, i.p.) and placed on a homeothermic operating table. The trachea was isolated and cannulated with a suitable polyethylene (PE) tubing. A midline incision at the hypogastrium level was made and one uterine horn exposed, its cephalic end cannulated with a PE240 tubing and, after filling the internal cavity with 0.2 ml of sterile physiological saline, connected to a “Gemini” amplifying/recording system via a P23ID Gould Statham pressure transducer.
One jugular vein was isolated, cannulated with a PE60 tubing and connected to a butterfly needle to provide an i.v. route of administration of the test compounds via a dispensing syringe.
In the case of intraduodenal administration of the test compounds, the duodenum can be isolated and similarly cannulated through a small incision in its wall.
One carotid artery was also isolated and cannulated with PE60 catheter and connected to a suitable syringe for blood sample collection.
After a stabilization period and throughout the experiment, the same dose of oxytocin was repeatedly injected intravenously at 30-min intervals. When reproducible contractile responses of the uterus to the same OT stimulus (selected dose of oxytocin) were obtained, the dose of the test compound or of the reference (vehicle) was administered. […]
The contractile response of the uterus to oxytocin was quantified by measuring the intrauterine pressure and the number of contractions. The effect of the reference and test compounds was evaluated by comparing pre- and post-treatment pressure values. […]
The activities of the pyrrolidine derivatives of formula (I) may be assessed using the above described in vivo biological assay. […]

Row | IC50 (hOT receptor) | melting point | Structure (SMILES) | % Reduction of Uterine Contraction ([1]; dose 1 mg/kg) | % Reduction of Uterine Contraction ([1]; dose 3 mg/kg) | % Reduction of Uterine Contraction ([1]; dose 10 mg/kg)
1 | 15 nM |  | CO/N=C1\C[C@@H](C(=O)OC)N(C(=O)c2ccc(-c3ccccc3C)cc2)C1 [Methyl (2S,4E)-4-(methoxyimino)-1-[(2′-methyl[1,1′-biphenyl]-4-yl)carbonyl]-2-pyrrolidinecarboxylate] |  |  | 
2 | 15 nM | 40 °C | CO/N=C1/C[C@@H](C(=O)OC)N(C(=O)c2ccc(-c3ccccc3C)cc2)C1 [Methyl (2S,4Z)-4-(methoxyimino)-1-[(2′-methyl[1,1′-biphenyl]-4-yl)carbonyl]-2-pyrrolidinecarboxylate] | −35.4 ± 7.0% | −49.0 ± 6.5% | −51.8 ± 9.2%

— patent publication US7189754B2, “Pyrrolidine ester derivatives with oxytocin modulating activity” (Applied Research Systems ARS Holding NV, priority 2001, dated 2007)
